The structures appear in SMILES notation. Calls of active or inactive are those of the source.

As usually defined, the Kd is the equilibrium constant for the complex coming apart.

Assay [1] concerns the target Cyclin-dependent kinase 6 (Homo sapiens, UniProt Q00534).
The target of assay [2] is Casein kinase I isoform delta (Homo sapiens, UniProt P48730).
A further assay concerns the target T1, dCTP pyrophosphatase 1 (Homo sapiens, UniProt Q9H773).
T1 sequence (Q9H773 whole entry): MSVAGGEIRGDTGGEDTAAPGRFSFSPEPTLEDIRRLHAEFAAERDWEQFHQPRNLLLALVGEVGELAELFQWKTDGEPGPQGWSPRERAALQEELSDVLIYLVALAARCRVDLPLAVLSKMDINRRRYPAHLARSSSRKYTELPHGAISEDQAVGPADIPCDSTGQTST

The target in assay [3] is Tyrosine-protein kinase Fer (Homo sapiens, UniProt P16591).
The target in assay [4] is Inosine-5'-monophosphate dehydrogenase 2 (Homo sapiens, UniProt P12268).
The target of assay [5] is MAP/microtubule affinity-regulating kinase 3 (Homo sapiens, UniProt P27448).
Assay [6] has as its target T2, RNA cytidine acetyltransferase (Homo sapiens, UniProt Q9H0A0).
T2 sequence (Q9H0A0 whole entry): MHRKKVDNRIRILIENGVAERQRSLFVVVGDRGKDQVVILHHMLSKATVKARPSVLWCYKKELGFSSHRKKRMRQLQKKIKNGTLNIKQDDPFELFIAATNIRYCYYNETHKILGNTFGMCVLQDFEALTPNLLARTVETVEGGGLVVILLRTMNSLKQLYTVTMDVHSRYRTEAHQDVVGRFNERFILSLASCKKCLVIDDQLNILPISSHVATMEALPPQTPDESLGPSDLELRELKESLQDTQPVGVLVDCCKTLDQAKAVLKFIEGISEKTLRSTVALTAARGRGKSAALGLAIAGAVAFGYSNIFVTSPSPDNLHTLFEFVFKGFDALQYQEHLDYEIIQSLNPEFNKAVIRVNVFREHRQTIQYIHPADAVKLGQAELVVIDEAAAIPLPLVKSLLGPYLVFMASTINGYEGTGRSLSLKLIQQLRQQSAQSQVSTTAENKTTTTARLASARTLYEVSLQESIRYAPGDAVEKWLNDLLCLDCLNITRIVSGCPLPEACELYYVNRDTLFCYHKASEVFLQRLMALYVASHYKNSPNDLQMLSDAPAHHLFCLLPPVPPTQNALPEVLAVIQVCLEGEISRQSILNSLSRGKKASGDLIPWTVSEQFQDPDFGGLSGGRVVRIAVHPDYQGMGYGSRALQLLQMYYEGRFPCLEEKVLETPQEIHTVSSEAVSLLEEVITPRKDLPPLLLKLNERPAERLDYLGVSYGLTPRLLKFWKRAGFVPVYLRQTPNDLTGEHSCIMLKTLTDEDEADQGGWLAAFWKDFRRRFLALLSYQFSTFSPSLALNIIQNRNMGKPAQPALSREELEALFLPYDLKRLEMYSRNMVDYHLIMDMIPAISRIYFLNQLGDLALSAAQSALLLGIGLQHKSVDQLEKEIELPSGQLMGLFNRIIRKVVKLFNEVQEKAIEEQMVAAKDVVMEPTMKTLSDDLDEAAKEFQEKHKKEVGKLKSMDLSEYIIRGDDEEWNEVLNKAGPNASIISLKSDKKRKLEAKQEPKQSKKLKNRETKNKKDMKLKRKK

Assay [7] concerns the target Platelet-derived growth factor receptor beta (Homo sapiens, UniProt P09619).
The next assay concerns the target T3, Septin-9 (Homo sapiens, UniProt Q9UHD8).
T3 sequence (Q9UHD8 whole entry): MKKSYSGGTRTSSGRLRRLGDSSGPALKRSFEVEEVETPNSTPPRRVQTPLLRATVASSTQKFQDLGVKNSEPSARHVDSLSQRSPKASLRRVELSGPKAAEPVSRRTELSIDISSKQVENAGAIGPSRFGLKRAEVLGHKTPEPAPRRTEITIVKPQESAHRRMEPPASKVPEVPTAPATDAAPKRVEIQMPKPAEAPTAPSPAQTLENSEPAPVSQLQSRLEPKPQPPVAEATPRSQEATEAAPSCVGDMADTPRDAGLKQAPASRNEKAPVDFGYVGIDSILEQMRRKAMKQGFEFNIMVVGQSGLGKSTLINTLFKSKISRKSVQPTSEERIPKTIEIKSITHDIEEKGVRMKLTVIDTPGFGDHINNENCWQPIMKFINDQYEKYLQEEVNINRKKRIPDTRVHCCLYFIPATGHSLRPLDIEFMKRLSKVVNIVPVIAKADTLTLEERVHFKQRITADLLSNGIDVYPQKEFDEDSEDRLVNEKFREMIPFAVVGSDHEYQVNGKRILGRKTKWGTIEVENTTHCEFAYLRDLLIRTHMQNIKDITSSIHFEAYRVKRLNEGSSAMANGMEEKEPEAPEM

Assay [8] has as its target Structural maintenance of chromosomes protein 2 (Homo sapiens, UniProt O95347).
Assay [9] deals with T4, Succinate--CoA ligase [ADP-forming] subunit beta, mitochondrial (Homo sapiens, UniProt Q9P2R7).
T4 sequence (Q9P2R7 whole entry): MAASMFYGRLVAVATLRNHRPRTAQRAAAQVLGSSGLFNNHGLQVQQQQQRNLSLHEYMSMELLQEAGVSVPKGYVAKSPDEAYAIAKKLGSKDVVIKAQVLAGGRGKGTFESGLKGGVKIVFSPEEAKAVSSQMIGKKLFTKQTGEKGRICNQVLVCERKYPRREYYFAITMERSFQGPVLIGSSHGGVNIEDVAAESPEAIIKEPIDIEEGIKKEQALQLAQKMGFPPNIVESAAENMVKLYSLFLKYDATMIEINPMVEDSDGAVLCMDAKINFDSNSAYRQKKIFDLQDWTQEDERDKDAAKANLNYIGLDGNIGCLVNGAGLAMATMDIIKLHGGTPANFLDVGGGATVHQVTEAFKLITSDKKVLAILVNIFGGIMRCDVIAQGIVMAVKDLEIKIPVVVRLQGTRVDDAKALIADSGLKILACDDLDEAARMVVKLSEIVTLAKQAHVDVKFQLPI
Further: in the data inactive means no Kd found up to 30 µM.

Sequence of Platelet-derived growth factor receptor beta (P09619 whole entry): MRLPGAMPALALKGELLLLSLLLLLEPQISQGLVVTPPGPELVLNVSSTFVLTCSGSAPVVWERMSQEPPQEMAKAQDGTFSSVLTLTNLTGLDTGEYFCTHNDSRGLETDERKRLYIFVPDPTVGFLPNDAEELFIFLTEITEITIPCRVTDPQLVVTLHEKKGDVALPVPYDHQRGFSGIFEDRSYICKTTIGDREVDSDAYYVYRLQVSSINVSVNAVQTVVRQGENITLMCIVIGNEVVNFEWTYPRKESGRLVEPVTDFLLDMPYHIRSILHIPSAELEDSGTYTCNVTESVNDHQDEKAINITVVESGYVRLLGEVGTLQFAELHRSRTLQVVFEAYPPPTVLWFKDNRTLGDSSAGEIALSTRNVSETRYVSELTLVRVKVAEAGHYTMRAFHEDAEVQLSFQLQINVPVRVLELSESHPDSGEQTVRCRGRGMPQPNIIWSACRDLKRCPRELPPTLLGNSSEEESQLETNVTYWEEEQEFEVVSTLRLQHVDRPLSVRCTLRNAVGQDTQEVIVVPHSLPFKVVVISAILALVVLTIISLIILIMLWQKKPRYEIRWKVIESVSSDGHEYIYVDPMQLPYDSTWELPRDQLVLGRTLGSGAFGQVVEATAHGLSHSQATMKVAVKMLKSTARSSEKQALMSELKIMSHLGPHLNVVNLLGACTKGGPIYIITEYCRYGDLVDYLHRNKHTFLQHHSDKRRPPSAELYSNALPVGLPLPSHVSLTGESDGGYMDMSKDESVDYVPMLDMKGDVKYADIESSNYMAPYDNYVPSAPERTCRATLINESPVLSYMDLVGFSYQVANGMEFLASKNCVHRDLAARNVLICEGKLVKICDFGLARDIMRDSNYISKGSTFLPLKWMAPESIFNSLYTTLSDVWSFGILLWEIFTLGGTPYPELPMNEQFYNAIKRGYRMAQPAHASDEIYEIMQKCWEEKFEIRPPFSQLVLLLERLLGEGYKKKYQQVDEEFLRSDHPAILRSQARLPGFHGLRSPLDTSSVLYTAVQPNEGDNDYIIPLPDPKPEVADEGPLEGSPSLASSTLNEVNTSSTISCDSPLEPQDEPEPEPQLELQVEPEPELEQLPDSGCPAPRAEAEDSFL
Sequence of MAP/microtubule affinity-regulating kinase 3 (P27448 whole entry): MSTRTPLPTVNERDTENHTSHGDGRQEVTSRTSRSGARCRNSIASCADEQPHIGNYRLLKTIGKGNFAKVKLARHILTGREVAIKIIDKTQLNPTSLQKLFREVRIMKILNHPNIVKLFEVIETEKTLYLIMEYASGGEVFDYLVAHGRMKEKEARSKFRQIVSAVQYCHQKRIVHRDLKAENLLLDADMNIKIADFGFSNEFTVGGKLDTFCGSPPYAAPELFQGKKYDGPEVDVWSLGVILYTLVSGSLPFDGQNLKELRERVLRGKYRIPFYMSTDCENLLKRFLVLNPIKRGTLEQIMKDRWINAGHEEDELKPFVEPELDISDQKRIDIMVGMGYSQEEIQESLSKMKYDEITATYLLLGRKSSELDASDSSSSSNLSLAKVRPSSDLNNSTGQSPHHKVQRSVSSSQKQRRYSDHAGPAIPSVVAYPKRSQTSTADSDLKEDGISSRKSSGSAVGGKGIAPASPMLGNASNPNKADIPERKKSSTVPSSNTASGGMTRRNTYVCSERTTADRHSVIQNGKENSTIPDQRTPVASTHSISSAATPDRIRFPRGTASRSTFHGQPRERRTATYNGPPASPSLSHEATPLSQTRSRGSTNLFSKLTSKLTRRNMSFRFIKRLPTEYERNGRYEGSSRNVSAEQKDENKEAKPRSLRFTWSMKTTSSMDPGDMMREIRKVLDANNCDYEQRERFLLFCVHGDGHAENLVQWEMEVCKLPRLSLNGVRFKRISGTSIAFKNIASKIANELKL
Sequence of Casein kinase I isoform delta (P48730 whole entry, canonical isoform): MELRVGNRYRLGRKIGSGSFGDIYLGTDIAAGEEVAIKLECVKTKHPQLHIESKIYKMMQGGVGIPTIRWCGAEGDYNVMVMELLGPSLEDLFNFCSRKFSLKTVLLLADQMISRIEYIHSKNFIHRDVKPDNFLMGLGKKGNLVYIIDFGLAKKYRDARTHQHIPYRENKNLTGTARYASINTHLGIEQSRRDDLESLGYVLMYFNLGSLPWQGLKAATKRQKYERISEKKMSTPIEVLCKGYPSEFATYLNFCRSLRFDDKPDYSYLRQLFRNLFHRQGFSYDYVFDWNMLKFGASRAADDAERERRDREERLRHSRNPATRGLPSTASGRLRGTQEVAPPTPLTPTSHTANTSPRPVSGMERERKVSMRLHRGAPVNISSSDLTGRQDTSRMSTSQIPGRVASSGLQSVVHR
Sequence of Tyrosine-protein kinase Fer (P16591 whole entry): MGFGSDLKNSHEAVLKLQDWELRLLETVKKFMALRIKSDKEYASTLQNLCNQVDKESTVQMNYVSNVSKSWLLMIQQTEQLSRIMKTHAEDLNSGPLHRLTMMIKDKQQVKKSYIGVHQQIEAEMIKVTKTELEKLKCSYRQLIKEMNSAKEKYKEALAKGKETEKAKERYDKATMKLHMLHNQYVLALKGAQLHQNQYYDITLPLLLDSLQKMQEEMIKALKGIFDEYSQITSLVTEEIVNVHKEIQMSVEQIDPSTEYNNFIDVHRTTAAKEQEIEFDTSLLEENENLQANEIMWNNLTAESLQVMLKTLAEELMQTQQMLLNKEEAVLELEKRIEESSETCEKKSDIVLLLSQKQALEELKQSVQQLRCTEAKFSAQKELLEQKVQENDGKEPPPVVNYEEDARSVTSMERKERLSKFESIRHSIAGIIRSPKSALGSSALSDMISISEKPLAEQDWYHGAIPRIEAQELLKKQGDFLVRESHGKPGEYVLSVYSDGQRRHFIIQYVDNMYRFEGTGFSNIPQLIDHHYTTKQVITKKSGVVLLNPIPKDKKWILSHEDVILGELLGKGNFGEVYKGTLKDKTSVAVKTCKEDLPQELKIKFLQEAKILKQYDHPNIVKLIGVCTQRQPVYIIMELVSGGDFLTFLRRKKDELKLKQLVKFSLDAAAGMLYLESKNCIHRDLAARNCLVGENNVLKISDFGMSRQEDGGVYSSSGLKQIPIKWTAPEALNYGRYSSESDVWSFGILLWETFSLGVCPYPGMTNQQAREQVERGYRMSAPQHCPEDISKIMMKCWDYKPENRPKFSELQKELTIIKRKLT
Sequence of Structural maintenance of chromosomes protein 2 (O95347 whole entry): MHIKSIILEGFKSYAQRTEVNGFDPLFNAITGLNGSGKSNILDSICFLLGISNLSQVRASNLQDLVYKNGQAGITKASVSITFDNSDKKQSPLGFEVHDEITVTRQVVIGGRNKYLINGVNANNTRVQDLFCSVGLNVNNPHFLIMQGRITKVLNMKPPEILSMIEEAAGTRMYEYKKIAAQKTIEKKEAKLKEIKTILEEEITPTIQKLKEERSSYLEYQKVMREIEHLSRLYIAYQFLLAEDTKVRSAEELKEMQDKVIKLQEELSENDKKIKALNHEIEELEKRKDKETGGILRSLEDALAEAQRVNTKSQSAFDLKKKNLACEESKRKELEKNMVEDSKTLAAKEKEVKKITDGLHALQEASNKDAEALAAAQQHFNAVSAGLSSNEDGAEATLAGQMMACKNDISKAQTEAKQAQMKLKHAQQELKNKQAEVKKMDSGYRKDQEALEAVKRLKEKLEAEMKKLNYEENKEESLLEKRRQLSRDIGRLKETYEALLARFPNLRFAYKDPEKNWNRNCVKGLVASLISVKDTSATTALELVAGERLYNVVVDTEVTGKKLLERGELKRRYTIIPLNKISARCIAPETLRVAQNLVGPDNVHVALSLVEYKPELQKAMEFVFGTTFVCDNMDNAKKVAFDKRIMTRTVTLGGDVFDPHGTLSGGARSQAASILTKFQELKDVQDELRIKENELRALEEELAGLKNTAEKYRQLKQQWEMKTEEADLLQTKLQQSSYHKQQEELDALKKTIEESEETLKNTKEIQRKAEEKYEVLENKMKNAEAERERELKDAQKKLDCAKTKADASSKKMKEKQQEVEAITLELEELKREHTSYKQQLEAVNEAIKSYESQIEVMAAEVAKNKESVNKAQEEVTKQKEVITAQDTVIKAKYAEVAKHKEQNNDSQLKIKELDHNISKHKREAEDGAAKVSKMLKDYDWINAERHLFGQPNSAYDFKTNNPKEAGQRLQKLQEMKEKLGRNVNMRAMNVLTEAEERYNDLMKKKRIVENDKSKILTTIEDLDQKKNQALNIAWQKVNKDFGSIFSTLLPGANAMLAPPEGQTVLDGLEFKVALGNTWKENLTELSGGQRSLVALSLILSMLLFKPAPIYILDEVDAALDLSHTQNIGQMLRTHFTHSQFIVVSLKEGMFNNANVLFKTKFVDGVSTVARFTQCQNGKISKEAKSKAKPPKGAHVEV
Sequence of Cyclin-dependent kinase 6 (Q00534 whole entry, canonical isoform): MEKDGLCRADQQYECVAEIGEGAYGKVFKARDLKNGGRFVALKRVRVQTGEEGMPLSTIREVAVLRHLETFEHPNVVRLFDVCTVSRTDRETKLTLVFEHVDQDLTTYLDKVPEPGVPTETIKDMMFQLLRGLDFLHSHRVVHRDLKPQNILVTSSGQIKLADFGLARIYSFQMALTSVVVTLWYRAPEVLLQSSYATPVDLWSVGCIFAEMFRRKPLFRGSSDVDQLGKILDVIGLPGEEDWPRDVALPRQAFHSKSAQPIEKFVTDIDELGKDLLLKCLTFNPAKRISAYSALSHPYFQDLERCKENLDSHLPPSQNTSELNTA

As to `CC(C)(O)CC(=O)NCCn1ccc2ncnc(Nc3ccc(Oc4cccc(C(F)(F)F)c4)c(Cl)c3)c21` [TAK-285], the Kd (in assay [1]; in assay [2]; on dCTP pyrophosphatase 1; in assay [3]; in [4]; in assay [5]) was > 30 µM (inactive) in each case. The Kd (in assay [6]; in assay [7]; on Septin-9; in [8]; in assay [9]) was > 30 µM (inactive) throughout.
`C=CCn1c(=O)c2cnc(Nc3ccc(N4CCN(C)CC4)cc3)nc2n1-c1cccc(C(C)(C)O)n1` [ADAVOSERTIB]: the Kd (in assay [1]; in assay [2]; on dCTP pyrophosphatase 1; in [3]; in [4]; in assay [5]) was > 30 µM (inactive) each time. The Kd (in assay [6]; in [7]; at Septin-9; in [8]; in [9]) was > 30 µM (inactive) in each case.
In the case of `NC[C@@](O)(c1ccc(Cl)cc1)c1ccc(-c2cn[nH]c2)cc1` [AT-13148], the Kd (in assay [1]; in assay [2]; on dCTP pyrophosphatase 1; in assay [3]; in assay [4]; in [5]) was > 30 µM (inactive) in each case. In addition, the Kd (in assay [6]; in [7]; at Septin-9; in assay [8]; in assay [9]) was > 30 µM (inactive) throughout.
On to `CCOc1ccn(-c2ccc(F)cc2)c(=O)c1C(=O)Nc1ccc(Oc2ccnc(N)c2Cl)c(F)c1` [BMS-777607], for which the Kd (in assay [1]; in [2]; at dCTP pyrophosphatase 1; in [3]; in assay [4]; in assay [5]) was > 30 µM (inactive) throughout. Besides, the Kd (in [6]; in [7]; at Septin-9; in [8]; in [9]) was > 30 µM (inactive) throughout.
Turning to `COc1cc(F)c(F)c(Nc2ccc(I)cc2F)c1NS(=O)(=O)C1(C[C@H](O)CO)CC1` [REFAMETINIB], the Kd (in assay [1]; in assay [2]; on dCTP pyrophosphatase 1; in [3]; in [4]; in assay [5]) was > 30 µM (inactive) throughout. The Kd (in [6]; in assay [7]; on Septin-9; in [8]; in assay [9]) was > 30 µM (inactive) in each case.
Regarding `COc1cc2ncnc3c2cc1OCCCCCN(C)Cc1ccc(Br)cc1N3` [JNJ-26483327], the Kd (in assay [1]; in assay [2]; on dCTP pyrophosphatase 1; in [3]; in assay [4]; in assay [5]) was > 30 µM (inactive) throughout. Further, the Kd (in assay [6]; in [7]; on Septin-9; in assay [8]; in [9]) was > 30 µM (inactive) in each case.
As to `C=CC(=O)Nc1cccc(Nc2nc(Nc3ccc(N4CCN(C(C)=O)CC4)cc3OC)ncc2C(F)(F)F)c1` [ROCILETINIB], the Kd in assay [1] was > 30 µM (inactive); in assay [2], > 30 µM (inactive); on dCTP pyrophosphatase 1 it was > 30 µM (inactive); in [3], 1.11 µM (active); in assay [4] it was > 30 µM (inactive); in assay [5] it was > 30 µM (inactive). Also, the Kd (in assay [6]; in assay [7]; at Septin-9; in assay [8]; in [9]) was > 30 µM (inactive) throughout.
Regarding `CCc1cc2c(cc1N1CCC(N3CCOCC3)CC1)C(C)(C)c1[nH]c3cc(C#N)ccc3c1C2=O` [ALECTINIB], the Kd is > 30 µM (inactive) in assay [1]; > 30 µM (inactive) in [2]; > 30 µM (inactive) on dCTP pyrophosphatase 1; 3.76 µM (active) in [3]; > 30 µM (inactive) in assay [4]; > 30 µM (inactive) in assay [5]. Also, the Kd (in [6]; in [7]; at Septin-9; in [8]; in [9]) was > 30 µM (inactive) in each case.
For the compound `COc1cc2ncnc(Nc3ccc(F)c(Cl)c3)c2cc1NC(=O)/C=C/CN1CCCCC1` [DACOMITINIB ANHYDROUS], the Kd (in assay [1]; in assay [2]; on dCTP pyrophosphatase 1; in assay [3]; in assay [4]; in assay [5]) was > 30 µM (inactive) each time. Besides, the Kd (in [6]; in [7]; on Septin-9; in [8]; in assay [9]) was > 30 µM (inactive) in each case.
As for `COc1cc2nccc(Oc3ccc(NC(=O)C4(C(=O)Nc5ccc(F)cc5)CC4)cc3)c2cc1OC` [CABOZANTINIB], the Kd (in [1]; in [2]; at dCTP pyrophosphatase 1; in [3]; in assay [4]; in assay [5]) was > 30 µM (inactive) in each case. The Kd (in assay [6]; in [7]; on Septin-9; in assay [8]; in [9]) was > 30 µM (inactive) in each case.

For the origin of these results see ChEMBL document CHEMBL3991601, “The target landscape of clinical kinase drugs” (Science, 2017).
